The results in this text go back to US20110294799A1, “Organic Compounds” (NOVARTIS AG, priority 2007, published 2011).

Experiment [1] deals with T1, GABA-A alpha1 receptor (alpha 1 subunit together with a beta and a gamma subunit) (Homo sapiens, UniProt P14867+P18507).
T1 construct: expressed in transfected cells
T1 sequence (P14867 28-456): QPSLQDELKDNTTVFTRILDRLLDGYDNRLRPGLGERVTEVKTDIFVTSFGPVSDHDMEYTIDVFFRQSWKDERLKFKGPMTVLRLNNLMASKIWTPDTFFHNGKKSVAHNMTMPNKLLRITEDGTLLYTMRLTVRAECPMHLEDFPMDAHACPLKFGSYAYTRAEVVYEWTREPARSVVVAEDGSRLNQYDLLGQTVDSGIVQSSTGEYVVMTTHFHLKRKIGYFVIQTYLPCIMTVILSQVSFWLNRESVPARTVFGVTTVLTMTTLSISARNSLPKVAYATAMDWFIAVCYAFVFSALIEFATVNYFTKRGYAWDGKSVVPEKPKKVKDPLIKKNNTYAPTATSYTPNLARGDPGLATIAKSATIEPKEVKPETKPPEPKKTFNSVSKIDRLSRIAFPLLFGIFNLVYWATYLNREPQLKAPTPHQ
T1 sequence (P47870 25-512 partner limits assumed): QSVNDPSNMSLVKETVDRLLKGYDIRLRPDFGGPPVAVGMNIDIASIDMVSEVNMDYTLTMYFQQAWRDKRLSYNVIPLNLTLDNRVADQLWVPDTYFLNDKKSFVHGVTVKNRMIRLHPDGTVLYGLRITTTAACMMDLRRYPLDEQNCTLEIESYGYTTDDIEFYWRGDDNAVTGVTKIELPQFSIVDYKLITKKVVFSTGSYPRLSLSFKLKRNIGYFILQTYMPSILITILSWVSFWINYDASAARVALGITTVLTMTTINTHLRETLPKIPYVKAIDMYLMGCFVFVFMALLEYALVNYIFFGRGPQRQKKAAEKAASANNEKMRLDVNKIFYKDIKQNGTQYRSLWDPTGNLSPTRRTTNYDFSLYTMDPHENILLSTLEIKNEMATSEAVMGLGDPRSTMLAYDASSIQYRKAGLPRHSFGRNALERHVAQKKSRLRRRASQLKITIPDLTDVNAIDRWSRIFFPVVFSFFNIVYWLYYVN
T1 sequence (P18507 40-467 limits assumed): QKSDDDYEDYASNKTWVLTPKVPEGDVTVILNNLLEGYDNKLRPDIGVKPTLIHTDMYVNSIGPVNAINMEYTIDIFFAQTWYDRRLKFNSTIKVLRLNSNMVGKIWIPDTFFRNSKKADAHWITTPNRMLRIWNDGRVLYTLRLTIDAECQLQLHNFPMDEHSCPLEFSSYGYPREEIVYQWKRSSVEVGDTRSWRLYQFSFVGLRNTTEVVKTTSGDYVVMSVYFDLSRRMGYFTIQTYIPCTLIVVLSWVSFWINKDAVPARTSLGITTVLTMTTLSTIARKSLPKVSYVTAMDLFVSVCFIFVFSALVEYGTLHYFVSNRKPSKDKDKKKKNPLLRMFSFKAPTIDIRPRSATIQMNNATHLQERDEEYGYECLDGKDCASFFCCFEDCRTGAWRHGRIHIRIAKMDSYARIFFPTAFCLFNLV
Kind of experiment: GABA-A receptor modulation, voltage-sensitive dye fluorescence in transfected eukaryotic cell line (alpha1). The experiment is classed as cell-based. To be noted: compounds at 3 μM, sub-maximal concentration of GABA (EC20); for activation at 3 µM: read-out: alpha1 % mod (percentage of increase of the fluorescent signal compared to signal without the agent). The text has this: (§1) GABA-A receptor modulators show in functional assays a positive modulation of GABA-induced signals. This modulation can be determined in vitro, e.g., at recombinant GABA-A receptors expressed in a mammalian cell line, e.g. by measurement of GABA-A receptor induced changes of the trans-membrane voltage, when using a voltage-sensitive dye and a fluorescence detection system (Adkins, C. E., Pillai, G. V., Kerby, J., Bonnert, T. P., Haldon, C., Mckernan, R. M., Gonzalez, J. E., Oades, K., Whiting, P. J. & Simpson, P. B. [2001]. alpha4beta3delta GABA-A receptors characterized by fluorescence resonance energy transfer-derived measurements of membrane potential. J. Biol. Chem., 276, 38934-38939). In this assay, a modulator compound is pre-applied at different concentrations ranging from 0.1 nM to 10 μM to cells expressing GABA-A receptors and loaded with the voltage-sensitive dye, before, or at the same time as, a sub-maximal concentration of GABA (in the range of from 0.1 to 10 μM) is applied to the cells. The fluorescent signal is correlated with the degree of GABA-A receptor channel opening. This allows the quantification of effects induced by the modulator in a functional manner. By expression of different GABA-A receptor subunit combinations, the differential efficacy of a modulator at different GABA-A receptor variants can be tested. Other functional assays include the electrophysiological recording of Xenopus oocytes or mammalian cells expressing respective receptor variants. In addition, ion flux detectors can be used to functionally study GABA-A receptors in heterologous expression systems. The affinity of a compound to the GABA-A receptor can be measured in radioligand binding experiments using reference ligands containing a radioactive element, e.g., tritiated flumazenil, and intact cells or membrane preparations of cells expressing GABA-A receptors.
(§2) Activity and selectivity of a GABA-A receptor modulator according to the invention can, e.g., be determined in vitro as follows: A transfected eukaryotic cell line expressing the alpha1, alpha2 or alpha3 subunit of the GABA-A receptor together with a beta and a gamma subunit of the GABA-A receptor is incubated with a voltage-sensitive dye, and the effects of an agonist (typically GABA) or modulator addition are recorded in a fluorimetric plate reader. The opening of the GABA-A receptor channel and the subsequent flux of anions through it changes the trans-membrane voltage of the transfected cells, leading to a change in the fluorescent signal of the voltage-sensitive dye. In the presence of the agent of the invention, a sub-maximal concentration of GABA (e.g. an EC20 or an EC50) added to transfected cells expressing the alpha1, alpha2 or alpha3 subunit of the GABA-A receptor will elicit an at least 50%, preferably an at least 80%, ideally an at least 100%, increase, of the fluorescent signal, compared to the fluorescent signal obtained without the agent of the invention. In this assay, agents of the invention modulate the GABA-induced response at concentration from about 0.1 to about 10′000 nM.

Experiment [2] deals with T2, GABA-A alpha2 receptor (alpha 2 subunit together with a beta and a gamma subunit) (Homo sapiens, UniProt P18507+P47869).
T2 construct: expressed in transfected cells
T2 sequence (P47869 29-451): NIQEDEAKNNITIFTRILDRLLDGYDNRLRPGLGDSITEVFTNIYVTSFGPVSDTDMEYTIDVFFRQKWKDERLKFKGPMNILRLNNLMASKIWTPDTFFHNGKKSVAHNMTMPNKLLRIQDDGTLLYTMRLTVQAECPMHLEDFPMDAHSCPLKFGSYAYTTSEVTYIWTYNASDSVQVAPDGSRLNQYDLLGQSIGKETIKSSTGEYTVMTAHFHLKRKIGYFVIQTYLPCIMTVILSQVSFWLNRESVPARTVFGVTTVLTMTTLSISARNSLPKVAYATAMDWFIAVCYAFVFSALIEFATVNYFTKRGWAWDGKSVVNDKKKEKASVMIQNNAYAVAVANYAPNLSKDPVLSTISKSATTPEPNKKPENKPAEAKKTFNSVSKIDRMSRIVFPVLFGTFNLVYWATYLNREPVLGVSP
T2 sequence (P47870 25-512 partner limits assumed): T1 sequence (P47870 25-512 partner limits assumed)
T2 sequence (P18507 40-467 limits assumed): T1 sequence (P18507 40-467 limits assumed)
In words: GABA-A receptor modulation, voltage-sensitive dye fluorescence in transfected eukaryotic cell line (alpha2). The experiment is classed as cell-based. To be noted: compounds at 3 μM, sub-maximal concentration of GABA (EC20); for activation at 3 µM: read-out: alpha2 % mod (percentage of increase of the fluorescent signal compared to signal without the agent).
From the text: as §1, §2

Turning to `Clc1ccccc1-n1nc2c(cnc3ccccc32)c1OCc1ccccc1Br` [Example 41, 3-[(2-bromobenzyl)oxy]-2-(2-chlorophenyl)-2H-pyrazolo[4,3-c]quinoline], the activation at 3 µM in experiment [1] was determined as 289%; in experiment [2] it was 386%.

Take `COc1ccc(-n2nc3c(cnc4ccccc43)c2OCc2ccncc2)cc1` [Example 60, 2-(4-methoxyphenyl)-3-(pyridin-4-ylmethoxy)-2H-pyrazolo[4,3-c]quinoline]: the figures for the activation at 3 µM in experiment [1] and in experiment [2] were 64% and 177%, respectively.

Take `Clc1ccc(-n2nc3c(cnc4ccccc43)c2OCCN2CCOCC2)cc1` [Example 93, 2-(4-Chloro-phenyl)-3-(2-morpholin-4-yl-ethoxy)-2H-pyrazolo[4,3-c]quinoline]: the activation at 3 µM in experiment [1] is 17%; in experiment [2], 81%.

`Cc1ccccc1-n1nc2c(cnc3ccccc32)c1OCc1ccccc1Br` [Example 36, 3-[(2-bromobenzyl)oxy]-2-(2-methylphenyl)-2H-pyrazolo[4,3-c]quinoline]: the activation at 3 µM in experiment [1] is 223%; in experiment [2] it was 315%.

As to `COc1ccc(-n2nc3c(cnc4ccccc43)c2OCCCN2CCN(C)C2=O)cc1` [Example 17, 1-(3-{[2-(4-methoxyphenyl)-2H-pyrazolo[4,3-c]quinolin-3-yl]oxy}propyl)-3-methylimidazolidin-2-one], the activation at 3 µM was found to be 262% in experiment [1] and 577% in experiment [2].

Regarding `Clc1ccc(-n2nc3c(cnc4ccc(-n5ccnc5)cc43)c2OCC2CC2)cc1` [Example 96, 2-(4-Chloro-phenyl)-3-cyclopropylmethoxy-8-imidazol-1-yl-2H-pyrazolo[4,3-c]quinoline], the results for the activation at 3 µM in experiment [1] and in experiment [2] were 119% and 162%, respectively.

On to `COc1ccc(-n2nc3c(cnc4ccccc43)c2OCc2ccc(C(F)(F)F)cc2)cc1` [Example 1, 2-(4-Methoxy-phenyl)-3-(4-trifluoromethyl-benzyloxy)-2H-pyrazolo[4,3-c]quinoline], for which the activation at 3 µM in experiment [1] was 5%; in experiment [2] it was 36%.

With `COc1ccc(-n2nc3c(cnc4ccccc43)c2OCCc2ccccc2Cl)cc1` [Example 15, 3-[2-(2-chlorophenyl)ethoxy]-2-(4-methoxyphenyl)-2H-pyrazolo[4,3-c]quinoline], the activation at 3 µM was 23% in experiment [1] and 197% in experiment [2].

On to `Clc1ccc(-n2nc3c(cnc4ccccc43)c2OCC2CC2)cc1` [Example 90, 2-(4-Chloro-phenyl)-3-cyclopropylmethoxy-2H-pyrazolo[4,3-c]quinoline], for which the values for the activation at 3 µM in experiment [1] and in experiment [2] were 60% and 164%, respectively.

Turning to `Cc1cccc2c1ncc1c(OCc3ccc(Cl)cc3)n(-c3ccccc3)nc12` [Example 31, 3-[(4-chlorobenzyl)oxy]-6-methyl-2-phenyl-2H-pyrazolo[4,3-c]quinoline], the results for the activation at 3 µM in experiment [1] and in experiment [2] were 51% and 81%, respectively.

With `Fc1ccccc1COc1c2cnc3ccccc3c2nn1-c1ccccc1` [Example 27, 3-[(2-fluorobenzyl)oxy]-2-phenyl-2H-pyrazolo[4,3-c]quinoline], the figures for the activation at 3 µM in experiment [1] and in experiment [2] were 62% and 165%, respectively.

In the case of `COc1ccc(-n2nc3c(cnc4ccccc43)c2OCc2ccccc2Cl)cc1` [Example 61, 3-[(2-chlorobenzyl)oxy]-2-(4-methoxyphenyl)-2H-pyrazolo[4,3-c]quinoline], the activation at 3 µM in experiment [1] was found to be 52%; in experiment [2] it was 145%.

Regarding `Clc1ccc(-n2nc3c(cnc4ccccc43)c2OC2CCCC2)cc1` [Example 92, 2-(4-Chloro-phenyl)-3-cyclopentyloxy-2H-pyrazolo[4,3-c]quinoline], the activation at 3 µM turned out to be 27% in experiment [1] and 57% in experiment [2].

Turning to `Clc1ccccc1COc1c2cnc3ccccc3c2nn1-c1ccc2c(c1)OCO2` [Example 59, 2-(1,3-benzodioxo1-5-y1)-3-[(2-chlorobenzypoxy]-2H-pyrazolo[4,3-c]quinoline], the “alpha1 % mod (percentage of increase of the fluorescent signal compared to signal without the agent)” value in experiment [1] was −17 % mod. For the same compound, in experiment [2], the “alpha2 % mod (percentage of increase of the fluorescent signal compared to signal without the agent)” value was 66 % mod.

As to `COc1ccc(-n2nc3c(cnc4c(F)c(F)c(F)cc43)c2SCc2ccccc2)cc1` [Example 70, 3-(benzylsulfanyl)-6,7,8-trifluoro-2-(4-methoxyphenyl)-2H-pyrazolo[4,3-c]quinoline], the values for the activation at 3 µM in experiment [1] and in experiment [2] were 188% and 349%, respectively.

Take `CC(C)(C)n1nc2c(cnc3ccccc32)c1OCc1ccccc1Br` [Example 81, 3-[(2-bromobenzyl)oxy]-2-tert-butyl-2H-pyrazolo[4,3-c]quinoline]: the activation at 3 µM in experiment [1] was found to be 109%; in experiment [2] it was 205%.

For `Fc1ccccc1-n1nc2c(cnc3ccccc32)c1OCCN1CCOCC1` [Example 19, 2-(2-fluorophenyl)-3-(2-morpholin-4-ylethoxy)-2H-pyrazolo[4,3-c]quinoline], the results for the activation at 3 µM in experiment [1] and in experiment [2] were 0% and 72%, respectively.
